For 6 cell lines, relative viability results are on record in the supplement of paper PMC10307832.

Holding throughout (test): relative viability (nuclei count vs DMSO), 5 days (fraction); higher = more cells survive
Compound in test [1]: C[C@@]1(C(=O)Nc2ccc(F)nc2)CCCN1c1nc(Nc2cc(C3CC3)n[nH]2)c2cccn2n1 + Cc1nc(NC(=O)N2CCC[C@H]2C(N)=O)sc1-c1ccnc(C(C)(C)C(F)(F)F)c1 [Alpelisib] (partner 2 µM)
Put shortly: (§1)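 Dosing by pin tool came one day after lung cancer cell lines were seeded in 1536-well plates, using either one drug or a fixed anchor-drug dose plus five library-drug doses (not always all listed) in √10 steps. After 5 days, nuclei were counted on 4× images. Relative viability is treated-well nuclei count divided by vehicle-well nuclei count, and values are medians of duplicate plates.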

Compound in the test “Motesanib + Decitabine”: CC1(C)CNc2cc(NC(=O)c3cccnc3NCc3ccncc3)ccc21 [Motesanib] + Nc1ncn([C@H]2C[C@H](O)[C@@H](CO)O2)c(=O)n1 [Decitabine] (partner 2 µM)
In a few lines: as §1

Compound in the test “Motesanib + Vorinostat”: CC1(C)CNc2cc(NC(=O)c3cccnc3NCc3ccncc3)ccc21 [Motesanib] + O=C(CCCCCCC(=O)Nc1ccccc1)NO [Vorinostat] (partner 1 µM)
In a few lines: as §1

Compound in test [2]: C[C@@]1(C(=O)Nc2ccc(F)nc2)CCCN1c1nc(Nc2cc(C3CC3)n[nH]2)c2cccn2n1 + CS(=O)(=O)CCNCc1ccc(-c2ccc3ncnc(Nc4ccc(OCc5cccc(F)c5)c(Cl)c4)c3c2)o1 [Lapatinib] (partner 2 µM)
In a few lines:
as §1

Regarding PC-3 [JPC-3], the relative viability in test [1] (first compound 0.04 µM) was 1.06; in test [1] (first compound 0.1265 µM), 0.945; in test [1] (first compound 0.4 µM) it was 0.893; in test [1] (first compound 1.265 µM), 0.974; with Motesanib + Decitabine (first compound 0.01 µM), 0.803; with Motesanib + Decitabine (first compound 0.03162 µM), 0.836. Moreover, the relative viability with Motesanib + Decitabine (first compound 0.1 µM) came to 0.858; with Motesanib + Decitabine (first compound 0.3162 µM), 0.897; in the test with Motesanib + Decitabine (first compound 1 µM), 1.01; in the test with Motesanib + Vorinostat (first compound 0.01 µM) it was 0.686; in the test with Motesanib + Vorinostat (first compound 0.03162 µM), 0.71; with Motesanib + Vorinostat (first compound 0.1 µM) it was 0.774. Besides, the relative viability in the test with Motesanib + Vorinostat (first compound 0.3162 µM) amounted to 0.828; in the test with Motesanib + Vorinostat (first compound 1 µM) it was 0.789; in test [2] (first compound 0.04 µM), 0.457; in test [2] (first compound 0.1265 µM), 0.403; in test [2] (first compound 0.4 µM), 0.382; in test [2] (first compound 1.265 µM), 0.398.

On to PC-14, for which the relative viability in test [1] (first compound 0.04 µM) worked out at 0.89; in test [1] (first compound 0.1265 µM) it was 0.828; in test [1] (first compound 0.4 µM) it was 0.833; in test [1] (first compound 1.265 µM), 0.941; with Motesanib + Decitabine (first compound 0.01 µM), 0.243; with Motesanib + Decitabine (first compound 0.03162 µM), 0.174. Also, the relative viability in the test with Motesanib + Decitabine (first compound 0.1 µM) is 0.275; in the test with Motesanib + Decitabine (first compound 0.3162 µM), 0.257; with Motesanib + Decitabine (first compound 1 µM), 0.231; with Motesanib + Vorinostat (first compound 0.01 µM) it was 0.702; with Motesanib + Vorinostat (first compound 0.03162 µM), 0.867; in the test with Motesanib + Vorinostat (first compound 0.1 µM), 0.778. The relative viability with Motesanib + Vorinostat (first compound 0.3162 µM) is 0.806; in the test with Motesanib + Vorinostat (first compound 1 µM) it was 0.771; in test [2] (first compound 0.04 µM), 0.329; in test [2] (first compound 0.1265 µM), 0.282; in test [2] (first compound 0.4 µM), 0.264; in test [2] (first compound 1.265 µM), 0.271.

With RERF-LC-KJ, the relative viability in test [1] (first compound 0.04 µM) amounted to 0.708; in test [1] (first compound 0.1265 µM), 0.866; in test [1] (first compound 0.4 µM) it was 0.515; in test [1] (first compound 1.265 µM), 0.787; with Motesanib + Decitabine (first compound 0.01 µM), 0.652; in the test with Motesanib + Decitabine (first compound 0.03162 µM), 0.752. Further, the relative viability is 0.719 with Motesanib + Decitabine (first compound 0.1 µM); 0.67 with Motesanib + Decitabine (first compound 0.3162 µM); 0.665 with Motesanib + Decitabine (first compound 1 µM); 0.625 with Motesanib + Vorinostat (first compound 0.01 µM); 0.711 with Motesanib + Vorinostat (first compound 0.03162 µM); 0.745 with Motesanib + Vorinostat (first compound 0.1 µM). The relative viability with Motesanib + Vorinostat (first compound 0.3162 µM) was found to be 0.808; with Motesanib + Vorinostat (first compound 1 µM), 0.789; in test [2] (first compound 0.04 µM), 0.793; in test [2] (first compound 0.1265 µM), 0.715; in test [2] (first compound 0.4 µM), 0.692; in test [2] (first compound 1.265 µM) it was 0.696.

Take SK-LU-1: the relative viability in test [1] (first compound 0.04 µM) was determined as 1.18; in test [1] (first compound 0.1265 µM), 0.965; in test [1] (first compound 0.4 µM), 0.825; in test [1] (first compound 1.265 µM), 0.708; with Motesanib + Decitabine (first compound 0.01 µM), 0.676; with Motesanib + Decitabine (first compound 0.03162 µM), 0.649. Also, the relative viability in the test with Motesanib + Decitabine (first compound 0.1 µM) was 0.823; with Motesanib + Decitabine (first compound 0.3162 µM), 0.831; with Motesanib + Decitabine (first compound 1 µM), 0.824; with Motesanib + Vorinostat (first compound 0.01 µM), 0.792; with Motesanib + Vorinostat (first compound 0.03162 µM), 0.745; with Motesanib + Vorinostat (first compound 0.1 µM), 0.839. Moreover, the relative viability with Motesanib + Vorinostat (first compound 0.3162 µM) came to 0.743; with Motesanib + Vorinostat (first compound 1 µM), 0.813; in test [2] (first compound 0.04 µM), 0.821; in test [2] (first compound 0.1265 µM), 0.861; in test [2] (first compound 0.4 µM), 0.598; in test [2] (first compound 1.265 µM), 0.577.

For SK-MES-1, the relative viability worked out at 0.962 in test [1] (first compound 0.04 µM); 0.676 in test [1] (first compound 0.1265 µM); 0.843 in test [1] (first compound 1.265 µM); 0.358 with Motesanib + Decitabine (first compound 0.01 µM); 0.383 with Motesanib + Decitabine (first compound 0.03162 µM); 0.59 with Motesanib + Decitabine (first compound 0.1 µM). In addition, the relative viability with Motesanib + Decitabine (first compound 0.3162 µM) was determined as 0.561; with Motesanib + Decitabine (first compound 1 µM) it was 0.695; in the test with Motesanib + Vorinostat (first compound 0.01 µM), 1.13; in the test with Motesanib + Vorinostat (first compound 0.03162 µM), 1.12; with Motesanib + Vorinostat (first compound 0.1 µM), 1.25; in the test with Motesanib + Vorinostat (first compound 0.3162 µM) it was 1.16. The relative viability came out at 1.16 with Motesanib + Vorinostat (first compound 1 µM); 0.477 in test [2] (first compound 0.04 µM); 0.438 in test [2] (first compound 0.1265 µM); 0.364 in test [2] (first compound 0.4 µM); 0.448 in test [2] (first compound 1.265 µM).

Consider SW 1573, for which the relative viability in test [1] (first compound 0.04 µM) amounted to 0.802; in test [1] (first compound 0.1265 µM), 0.518; in test [1] (first compound 0.4 µM), 0.523; in test [1] (first compound 1.265 µM), 0.715; with Motesanib + Decitabine (first compound 0.01 µM) it was 0.532; in the test with Motesanib + Decitabine (first compound 0.03162 µM), 0.511. Besides, the relative viability was 0.458 in the test with Motesanib + Decitabine (first compound 0.1 µM); 0.586 in the test with Motesanib + Decitabine (first compound 0.3162 µM); 0.553 with Motesanib + Decitabine (first compound 1 µM); 0.77 with Motesanib + Vorinostat (first compound 0.01 µM); 0.799 with Motesanib + Vorinostat (first compound 0.03162 µM); 0.738 in the test with Motesanib + Vorinostat (first compound 0.1 µM). In addition, the relative viability with Motesanib + Vorinostat (first compound 0.3162 µM) turned out to be 0.834; with Motesanib + Vorinostat (first compound 1 µM), 1.04; in test [2] (first compound 0.04 µM), 1.04; in test [2] (first compound 0.1265 µM) it was 0.902; in test [2] (first compound 0.4 µM), 0.729; in test [2] (first compound 1.265 µM) it was 1.
